Reference: patent US4921846A, “Novel 17-hetero substituted steroids” (Roussel Uclaf, priority 1987, dated 1990)

Legend:
[1] = target: T1, Glucocorticoid receptor of the thymus of a rat (Rattus norvegicus, UniProt P06536); experiment: Glucocorticoid receptor of the thymus of a rat, relative bond affinity; type: binding; details: for relative bond affinity (RBA), Glucocorticoid: RBA=100(CH)/(CX), reference dexamethasone
T1 construct: The thymuses were removed and homogenized at 0° C; from tissue; host or cells: thymus of adrenalectomized male Sprague-Dawley rats, 105,000 g supernatant (cytosol)
T1 sequence (P06536 1-795): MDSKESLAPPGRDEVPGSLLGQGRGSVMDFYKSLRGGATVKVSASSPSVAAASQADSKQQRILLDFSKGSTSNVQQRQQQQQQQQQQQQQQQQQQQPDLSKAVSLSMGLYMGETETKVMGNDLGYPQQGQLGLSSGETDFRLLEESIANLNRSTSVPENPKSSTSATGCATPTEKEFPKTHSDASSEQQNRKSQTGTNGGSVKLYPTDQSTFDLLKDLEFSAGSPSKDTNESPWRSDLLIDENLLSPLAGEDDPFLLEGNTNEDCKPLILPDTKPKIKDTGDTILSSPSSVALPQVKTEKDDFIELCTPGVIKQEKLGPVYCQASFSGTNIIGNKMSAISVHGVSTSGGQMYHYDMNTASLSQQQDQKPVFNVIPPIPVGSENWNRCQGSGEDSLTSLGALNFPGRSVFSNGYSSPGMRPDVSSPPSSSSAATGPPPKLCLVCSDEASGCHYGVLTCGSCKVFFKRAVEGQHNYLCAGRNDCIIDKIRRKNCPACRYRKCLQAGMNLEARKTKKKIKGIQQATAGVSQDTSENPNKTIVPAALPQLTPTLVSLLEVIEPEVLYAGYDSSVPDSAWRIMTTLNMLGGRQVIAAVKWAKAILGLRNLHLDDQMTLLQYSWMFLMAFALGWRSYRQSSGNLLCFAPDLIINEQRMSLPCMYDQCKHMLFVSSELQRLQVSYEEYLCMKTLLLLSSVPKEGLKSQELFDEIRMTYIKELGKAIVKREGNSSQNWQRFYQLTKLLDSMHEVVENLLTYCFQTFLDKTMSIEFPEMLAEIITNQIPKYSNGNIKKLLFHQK
Description: Sprague-Dawley EPOS male rats weighting 160 to 200 g were suprarenalectomized and, 4 to 8 days after this removal, the animals were killed. The thymuses were removed and homogenized at 0° C. in a buffer Tris 10 mM, saccharose 0.25M, dithiothreitol 2 mM, HCl, pH 7.4, with Potter polytetrafluoroethylene-dish (1 g of tissue per 10 ml of TS). The homogenate was then ultra-centrifuged (105,000 g×90 minutes) at 0° C. Aliquots of the supernatant thus obtained were incubated at 0° C. for a time t, with a constant concentration (T) of tritiated dexamethasone in the presence of increasing concentrations (0-2500×10^-9 M) either of cold dexamethasone, or of cold product under test. The concentration of bonded tritiated […] (B) was then measured in each incubate by the technique of adsorption on dextran carbon.
(§1) The calculation of the relative bond affinity (RBA) was the same for all the receptors. The following 2 curves were drawn: the percentage of bonded tritiated hormone B/T as a function of the logarithm of the concentration of the cold reference hormone and B/T as a function of the logarithm of the concentration of the cold product under test. The straight line of the equation I50 =(B max/T+B min/T)/2 was determined. B/T max = percentage of bonded tritiated hormone for an incubation of this hormone tritiated at a concentration (T). B/T min = percentage of bonded tritiated hormone for an incubation of this tritiated hormone at a concentration (T) in the presence of a large excess of cold hormone (2500×10^-9 M). The intersections of the straight line I50 and the curves enables the concentrations of cold reference hormone (CH) and of cold product under test (CX) which inhibit by 50% the bond of the tritiated hormone on the receptor to be evaluated. The relative bond affinity (RBA) of the product tested was determined by the equation: […]

[2] = tested on: female rat; experiment: Abortive activity in a female rat; type: in vivo; details: 3 mg/kg on day D9 of gestation, suspension in carboxymethyl cellulose containing 0.5% Tween; examined 72 hours after treatment
Description: Day D1 of gestation was determined by the presence of spermatozoids in the vaginal smear and, on day D9 of the gestation, the product was administered in suspension in carboxymethyl cellulose containing 0.5% Tween. The animals were killed 72 hours after the treatment and the uterus was examined to determine the state of gestation.

[3] = target: T2, Progestogene receptor of the uterus of a rabbit (Oryctolagus cuniculus, UniProt P06186); experiment: Progestogene receptor of the uterus of a rabbit, relative bond affinity; type: binding; details: for relative bond affinity (RBA), Progestogene: RBA=100(CH)/(CX)
T2 construct: The uteri were removed, weighted and homogenized at 0° C; from tissue; host or cells: uterus of estradiol-treated impuberal female rabbits, 105,000 g supernatant (cytosol)
T2 sequence (P06186 1-930): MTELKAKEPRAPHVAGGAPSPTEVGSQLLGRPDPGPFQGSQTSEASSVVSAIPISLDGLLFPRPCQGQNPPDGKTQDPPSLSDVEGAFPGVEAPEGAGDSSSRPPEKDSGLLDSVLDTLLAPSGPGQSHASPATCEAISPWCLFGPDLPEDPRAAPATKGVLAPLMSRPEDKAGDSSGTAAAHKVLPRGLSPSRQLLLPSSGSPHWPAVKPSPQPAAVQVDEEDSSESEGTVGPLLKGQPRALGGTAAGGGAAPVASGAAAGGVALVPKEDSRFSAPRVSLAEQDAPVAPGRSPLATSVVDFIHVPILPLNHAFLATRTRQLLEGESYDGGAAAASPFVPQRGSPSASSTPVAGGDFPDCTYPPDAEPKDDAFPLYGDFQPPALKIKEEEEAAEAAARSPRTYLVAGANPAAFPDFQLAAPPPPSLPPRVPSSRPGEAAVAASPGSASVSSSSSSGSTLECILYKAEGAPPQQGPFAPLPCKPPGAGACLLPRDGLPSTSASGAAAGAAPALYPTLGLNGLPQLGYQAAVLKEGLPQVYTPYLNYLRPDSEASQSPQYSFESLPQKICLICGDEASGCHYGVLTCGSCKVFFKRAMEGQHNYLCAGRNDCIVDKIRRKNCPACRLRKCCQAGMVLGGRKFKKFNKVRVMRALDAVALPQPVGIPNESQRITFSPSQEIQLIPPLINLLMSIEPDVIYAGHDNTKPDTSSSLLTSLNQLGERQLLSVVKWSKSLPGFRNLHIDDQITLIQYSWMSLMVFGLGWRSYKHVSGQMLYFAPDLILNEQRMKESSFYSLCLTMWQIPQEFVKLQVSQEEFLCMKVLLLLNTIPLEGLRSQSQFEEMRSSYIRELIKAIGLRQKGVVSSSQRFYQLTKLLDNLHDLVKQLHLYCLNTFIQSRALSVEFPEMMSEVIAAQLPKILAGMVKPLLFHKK
Description: Impuberal female rabbits of about 1 kg received a cutaneous application of […] of estradiol and, 5 days after this treatment, the animals were killed. The uteri were removed, weighted and homogenized at 0° C. in a Potter teflon-dish in a buffered solution TS (Tris 10 mM, saccharose 0.25M, HCl pH 7.4) (1 g of tissue per 50 ml of TS). The homogenate was then ultra-centrifuged (105,000 g×90 minutes) at 0° C. and aliquots of the supernatant thus obtained were incubated at 0° C. for a time t, with a constant concentration (T) of tritiated product R (17,21-dimethyl-19-nor-Δ^4,9 -pregnadien-3,20-dione) in the presence of increasing concentrations (0-2500×10^-9 M) either of cold R, or of cold progesterone or of the cold product under test. The concentration of bonded tritiated R (B) […] by the technique of adsorption on dextran carbon.
as §1

[4] = tested on: Thymocytes of suprarenalectomized rats; experiment: Antiglucocorticoid activity: tritiated uridin incorporation in thymocytes with dexamethasone; type: cell-based; details: Rattus norvegicus, Thymocyte, 5.10^-8 M dexamethasone, 37° C., read-out: % inhibition of the effect of dexamethasone; for inhibition at 1 µM: product at 10^-6 M; for inhibition at 0.1 µM: product at 10^-7 M; for inhibition at 0.01 µM: product at 10^-8 M
Description: The technique used was derived from the method described by Dausse et al in Molecular Pharmacology, Vol. 13, p.
Thymocytes of suprarenalectomized rats were incubated at 37° C. for 3 hours in a nutritive medium containing 5.10^-8 M of dexamethasone in the presence or absence of a product test at various concentrations. Tritiated uridin was added and incubation was continued for one hour. The incubates were cooled, treated with a 5% solution of trichloroacetic acid, filtered on Whatman GF/A paper and washed three time with a 5% solution of trichloroacetic acid. The radioactivity retained by the filter was determined. Glucocorticoids and, in particular dexamethasone, cause a decrease in the incorporation of tritiated uridin.

Structure (SMILES) | relative bond affinity (RBA), Glucocorticoid ([1]; Incubation Time at 0° C.: 2 H) | relative bond affinity (RBA), Glucocorticoid ([1]; Incubation Time at 0° C.: 4 H) | affinity for glucocorticoid receptors (in words) ([1]; conclusion) | abortion (state of gestation) [2] | relative bond affinity (RBA), Progestogene ([3]; Incubation Time at 0° C.: 2 H) | relative bond affinity (RBA), Progestogene ([3]; Incubation Time at 0° C.: 4 H) | affinity for progestogen receptors (in words) ([3]; conclusion) | inhibition at 1 µM [4] | inhibition at 0.1 µM [4] | inhibition at 0.01 µM [4]
CN(C)c1ccc([C@H]2C[C@@]3(C)[C@@H](CC[C@@]34CCO4)[C@@H]3CCC4=CC(=O)CCC4=C32)cc1 [Example 1, (17R) 11β-[4-(dimethylamino)-phenyl]-spiro-(Δ^4,9-estradien-17,2'-oxetan)-3-one] | 126 | 43 | marked affinity | complete abortion in all the animals of the group | 93 | 415 | marked affinity | 122% | 55% | 16%
CSc1ccc([C@H]2C[C@@]3(C)[C@@H](CC[C@@]34CCO4)[C@@H]3CCC4=CC(=O)CCC4=C32)cc1 [Example 2, (17R) 11β-[4-(methylthio)-phenyl]-spiro-(Δ^4,9-estradient-17,2'-oxetan)-3-one] | 56 | 22 |  |  | 23 | 67 |  | 76% | 27% | 10%
CN(C)c1ccc([C@H]2C[C@@]3(C)[C@@H](CC[C@@]34CCCCO4)[C@@H]3CCC4=CC(=O)CCC4=C32)cc1 [Example 3, (17S) 11β-[4-(dimethylamino)-phenyl]-3',4',5',6'-tetrahydro spiro (Δ^4,8-estradien-17,2'-(2H)pyran)-3-one] | 23 | 24 |  |  | 24 | 157 |  | 93% | 22% | 7%
